In patent US10342480B2, “Magnetoencephalography biomarkers of GABA-B agonist drug activity in autism spectrum disorders” (THE CHILDREN'S HOSPITAL OF PHILADELPHIA, priority 2013, dated 2019):

Columns and labels:
baseline gamma power = conditions: NMDAR antagonists; in vivo LFP and EEG recordings in awake rodents; cited from earlier work
[1] = test system: auditory brain activity (M100 latency, gamma-band ITC, steady state gamma) in autism; experiment: Magnetoencephalography (MEG) of auditory responses at baseline and 12 weeks after treatment, single subject from clinical trial; assay type: in vivo, human
Experimental: FIG. 5 provides graphs of M100 latency in autism in response to STX209, showing baseline and post-treatment.
To measure M100 STG latency, a 1 Hz (6 dB/octave, forward) to 40 Hz (48 dB/octave, zero-phase) bandpass filter was applied and left and right M100 STG peak latency (measured in nano-Ampere-meters, nAm) was calculated from the largest point in the M100 scoring window (90 to 190 ms) using in-house MatLab software.
The calculation of single-trial phase and magnitude for the left and right STG sources used a modification of procedures (Hoechstetter et al. (2004) Brain Topogr, 16:233-8.) where in each participant the derived source model was applied to the raw unfiltered data. Transformation from the time domain to the time-frequency domain used complex demodulation procedures (Papp et al. (1977) Biomed Sci Instrum, 13:135-45) implemented in BESA 5.2, using frequencies between 4 and 80 Hz, in steps of 2 Hz.1 Continuous data were analyzed relative to the tone onset every 25 ms, utilizing +/−39.4 ms and +/−2.83 Hz (full width at half maximum parameters) of contiguous data at each 25 ms step. Time-frequency measures were computed from −400 to 400 ms relative to stimulus onset. For evoked activity, background activity at each frequency (average power −400 to −100 ms) was calculated and subtracted as a function of frequency. In addition to evoked activity, for each time-frequency bin, a measure of phase-locking referred to as inter-trial coherence was computed as
[formula] where the sum is over all N trials, and Ø (k) is the phase of the signal in the k^th trial. Inter-trial coherence (ITC) is a normalized measure with ITC=1 reflecting no phase variability and ITC=0 reflecting maximal phase variability across trials (Lachaux et al. (1999) Hum. Brain Mapp, 8:194-208). Group Comparisons
A single subject from a recent phase/T clinical trial of STX209 (arbaclofen), a […] agonist, underwent MEG at baseline and at 12 weeks after treatment. […] Indeed, a reduction in 100 ms latency for 4 stimuli in both hemispheres was observed.

Row | SMILES | baseline gamma power (baseline gamma power) | auditory M100 latency ([1]; MEG at baseline vs 12 weeks after treatment, 4 stimuli, both hemispheres, FIG. 5) | gamma-band inter-trial coherence (ITC) ([1]; MEG at baseline vs 12 weeks after treatment, both hemispheres, FIG. 6) | steady state gamma power ([1]; baseline vs post-treatment, elicited by AM tone, driven at 40 Hz, FIG. 7)
1 | C[C@]12N[C@H](Cc3ccccc31)c1ccccc12 [MK-801] | dose-dependent increase in baseline gamma power |  |  | 
2 | c1ccc(C2(N3CCCCC3)CCCCC2)cc1 [PCP] | dose-dependent increase in baseline gamma power |  |  | 
3 | NC[C@H](CC(=O)O)c1ccc(Cl)cc1 [STX209, arbaclofen] |  | shortened post-treatment | gamma band ITC was restored after treatment | boosted post-treatment
4 | CNC1(c2ccccc2Cl)CCCCC1=O (stereo not drawn) [ketamine] | dose-dependent increase in baseline gamma power |  |  | 
